Here are results for seven compounds from ChEMBL document CHEMBL4229329, “Design of Small-Molecule Active-Site Inhibitors of the S1A Family Proteases as Procoagulant and Anticoagulant Drugs” (J Med Chem, 2018).

pKi: −log10 of the molar value. Bounds are passed on as bounds.

A short description of series [1]: Oral bioavailability in human at 57 to 200 mg. It is filed as ADME, organism-based. To be noted: in vivo.
Series [2] is described as follows: Apparent permeability across human Caco2 cells measured every 30 mins for 2 hrs. It is filed as ADME, cell-based. Conditions: Caco-2. On the technique in general: Passage across Caco-2 layers is used to estimate intestinal permeability.
The species entered for series [3] is Homo sapiens. The experiment in a line: Selectivity ratio of Ki for recombinant human factor 9a to Ki for human factor 10a.
Series [4] can be described thus: Apparent permeability across apical to basolateral side in human Caco2 cells at 750 uM measured over 90 mins by HPLC-MS analysis. To be noted: Caco-2. It is filed as ADME, cell-based.
Series [5] can be described thus: Efflux ratio of apparent permeability across basolateral to apical over apical to basolateral side in human Caco2 cells. The series is classed as ADME, cell-based. To be noted: Caco-2.
A short description of series [6]: Oral bioavailability in human at 10 mg. It is filed as ADME, organism-based. To be noted: in vivo.
In series [7] the target is Plasminogen (Homo sapiens, UniProt P00747). The experiment in a line: Competitive inhibition of human plasmin using chromozyme PL as substrate by UV-visible spectrophotometer.
In series [8] the target is Coagulation factor X (Homo sapiens, UniProt P00742). Description: Competitive inhibition of human factor 10a using pefachrome F10a as substrate by UV-visible spectrophotometer.
In series [9] the target is Plasma kallikrein (Homo sapiens, UniProt P03952). The experiment in a line: Competitive inhibition of human plasma kallikrein using S2302 as substrate by UV-visible spectrophotometer.
Series [10] addresses Coagulation factor XI (Homo sapiens, UniProt P03951). The experiment in a line: Competitive inhibition of human factor 11a using pefachrome PCa as substrate by UV-visible spectrophotometer.
Series [11] is filed under the species Homo sapiens. The experiment in a line: Selectivity ratio of Ki for human PKK to Ki for human factor 11a.
Series [12] can be described thus: Apparent permeability across apical to basolateral side in human Caco2 cells at 10 umol/l measured at 45 to 120 mins by LC-MS/MS analysis. Conditions: Caco-2. It is filed as ADME, cell-based.

As a reminder, the bioavailability is dose-corrected exposure relative to a reference, in per cent. A higher bioavailability goes with much systemic uptake. As a reminder, the Papp is a coefficient for how fast a substance crosses the barrier. Usually Papp A→B stands for how fast a substance crosses the layer from the apical side. Broadly, the efflux ratio is the permeability from basolateral to apical divided by that in the opposite direction, in the common usage. For orientation: pKi means the negative decadic logarithm of the Ki, by convention in mol/L.

Compound `N=C(N)c1ccc(CNC(=O)[C@@H]2CCN2C(=O)[C@H](NCC(=O)O)C2CCCCC2)cc1` registered a bioavailability in series [1] of 3 to 7%. In series [2], the Papp at 2 h turned out to be 0.03 ×10⁻⁶ cm/s. In the case of `N=C(N)c1cccc(-n2nc(C(F)(F)F)cc2C(=O)Nc2ccc(-n3cnc4ccccc43)cc2F)c1`, in [3], the Ratio Ki came to 130. In the case of `CCOC(=O)CN[C@@H](C(=O)N1CC[C@H]1C(=O)NCc1ccc(/C(N)=N\O)cc1)C1CCCCC1` [XIMELAGATRAN], the Papp A→B at 1.5 h, 750 µM in series [4] came out at 2.4 ×10⁻⁶ cm/s.

Regarding `CCCCCCOC(=O)NC(=N)c1ccc(NCc2nc3cc(C(=O)N(CCC(=O)OCC)c4ccccn4)ccc3n2C)cc1` [DABIGATRAN ETEXILATE], the efflux ratio in series [5] came out at 13.8. In the case of `O=C(NC[C@H]1CN(c2ccc(N3CCOCC3=O)cc2)C(=O)O1)c1ccc(Cl)s1` [RIVAROXABAN], the bioavailability in series [6] was above 80%.

With `N=C(N)c1ccc(CC(=O)[C@H](Cc2cccc(CN)c2)NC(=O)[C@@H](CCCc2ccccc2)NS(=O)(=O)Cc2cccc(C(=O)O)c2)cc1`, the pKi was 8.66 in series [7], 7.35 in [8], 10.70 in series [9] and 7.74 in [10]. For the compound `O=C(N[C@@H](Cc1ccccc1)C(=O)NCc1cc(=O)[nH]c2ccc(Cl)cc12)c1ccc2[nH]c(=O)cc(O)c2c1`, in series [11], the Ratio Ki was found to be 10. Moreover, the apparent permeability from apical to basolateral (Papp A→B) at 10 µM in series [12] worked out at 0.28 ×10⁻⁶ cm/s.
